Molecules are shown by their SMILES. “And” between values parts separate entries of the source, which are not always exact repeats. Equal entries are not always repeated. Inconclusive results and toxic doses are left out. Square brackets hold non-standard residues; d marks the D form. Peptide text beside a SMILES is read from it. ξ: configuration not given here. ξPhe(4-N(CH2CH2Cl)2) = NC(Cc1ccc(N(CCCl)CCCl)cc1)C(=O)O

This test has as its system P388 leukemia ip, CD2F1 mice, survival T/C. Nature of the test: NCI In Vivo Anticancer Drug Screen. Data for tumor model P388 Leukemia (intraperitoneal) in CD2F1 (CDF1) mice. Conditions: endpoint: median survival time, higher = longer survival. An outline of the steps: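 Mice carrying the transplanted tumor received test compound or vehicle. Survival was recorded in each group, and the value is the treated-group measurement divided by that of the vehicle-treated control group.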

Where [1] appears, read: dose: 50.0 mg/kg/injection, schedule: Q01DX005 (ip), vehicle: Klucel (hydroxypropylcellulose) (HPC).
The mark [2] stands for this setting: dose: 100.0 mg/kg/injection, schedule: Q01DX005 (ip), vehicle: Klucel (hydroxypropylcellulose) (HPC).
[3] abbreviates: dose: 50.0 mg/kg/injection, schedule: Q01DX009 (ip), vehicle: Klucel (hydroxypropylcellulose) (HPC).
Setting [4] is: dose: 60.0 mg/kg/injection, schedule: Q01DX005 (ip), vehicle: saline with Tween-80.
The mark [5] stands for this setting: dose: 50.0 mg/kg/injection, schedule: Q01DX005 (ip), vehicle: saline with Tween-80.
Setting [6] is: dose: 100.0 mg/kg/injection, schedule: Q01DX005 (ip), vehicle: saline with Tween-80.
Setting [7] is: dose: 200.0 mg/kg/injection, schedule: Q01DX005 (ip), vehicle: saline with Tween-80.
The mark [8] stands for this setting: dose: 25.0 mg/kg/injection, schedule: Q01DX009 (ip), vehicle: Klucel (hydroxypropylcellulose) (HPC).
[9] abbreviates: dose: 100.0 mg/kg/injection, schedule: Q01DX009 (ip), vehicle: Klucel (hydroxypropylcellulose) (HPC).
Where [10] appears, read: dose: 200.0 mg/kg/injection, schedule: Q01DX009 (ip), vehicle: Klucel (hydroxypropylcellulose) (HPC).
The mark [11] stands for this setting: dose: 50.0 mg/kg/injection, schedule: Q01DX009 (ip), vehicle: saline.
[12] abbreviates: dose: 100.0 mg/kg/injection, schedule: Q01DX009 (ip), vehicle: saline.
[13] abbreviates: dose: 200.0 mg/kg/injection, schedule: Q01DX009 (ip), vehicle: saline.
[14] abbreviates: dose: 120.0 mg/kg/injection, schedule: Q01DX005 (ip), vehicle: saline with Tween-80.

Regarding `COc1cc(NC(=O)CNC(=O)CNC(=O)C(N)CC(C)C)cc2ccccc12` (configuration not stated), the T/C is, setting by setting: under setting [1], 100 % of control; under setting [2], 96 % of control; (dose: 200.0 mg/kg/injection, schedule: Q01DX005 (ip), vehicle: Klucel (hydroxypropylcellulose) (HPC)) 100 % of control.
As for `N=C=S.N=C=S.O=[N+]([O-])O.[Co+3].[NH2-].[NH2-].[NH2-].[NH2-]`, the T/C under setting [3] is 113 % of control.
`C[C@H](CCC(=O)O)[C@H]1CC[C@H]2[C@@H]3[C@H](O)C[C@@H]4C[C@H](O)CC[C@]4(C)[C@H]3C[C@H](O)[C@]12C` (tested in a mixture with another compound): the T/C by setting is: (dose: 75.0 mg/kg/injection, schedule: Q01DX009 (ip), vehicle: saline sonified) 104 % of control; (dose: 300.0 mg/kg/injection, schedule: Q01DX009 (ip), vehicle: saline sonified) 163 % of control.
Consider `COc1cc(OC)c2cc(-n3nnc4cc([N+](=O)[O-])ccc43)c(=O)oc2c1`, for which the T/C by setting is: (dose: 7.5 mg/kg/injection, schedule: Q01DX005 (ip), vehicle: saline with Tween-80) 100 % of control; (dose: 15.0 mg/kg/injection, schedule: Q01DX005 (ip), vehicle: saline with Tween-80) 95 % of control; (dose: 30.0 mg/kg/injection, schedule: Q01DX005 (ip), vehicle: saline with Tween-80) 88 % of control; under setting [4], 88 % of control.
Consider `CN1CCN(CCCN2c3ccccc3Sc3ccc(C(F)(F)F)cc32)CC1`, for which the T/C by setting is: (dose: 25.0 mg/kg/injection, schedule: Q01DX009 (ip), vehicle: saline with Tween-80) 109 % of control; (dose: 50.0 mg/kg/injection, schedule: Q01DX009 (ip), vehicle: saline with Tween-80) 118 % of control; (dose: 66.0 mg/kg/injection, schedule: Q04DX003 (ip), vehicle: saline with Tween-80) 163 % of control; (dose: 100.0 mg/kg/injection, schedule: Q04DX003 (ip), vehicle: saline with Tween-80) 150 % of control.
Take `COc1cc(C(CC#N)CC#N)cc(OC)c1OC`: the T/C was 96 % of control under setting [5], 99 % of control under setting [6] and 97 % of control under setting [7].
Regarding `O=[N+]([O-])c1cc[n+]([O-])c(Cl)c1`, the T/C by setting is: under setting [8], 91 % of control; under setting [3], 96 % of control; under setting [9], 94 % of control; under setting [10], 101 % of control.
Take `CCCCCCCCCCCCCCCCOc1ccc(S(=O)(=O)N/N=c2/sc(-c3ccccc3Cl)nn2C)cc1C(=O)O`: the T/C reads like this: under setting [11], 100 % of control; under setting [12], 100 % of control; under setting [13], 96 % of control.
Turning to `O=S(=O)(Nc1nccs1)c1ccc(Nc2c3ccccc3nc3ncccc23)cc1`, the T/C under setting [4] was 93 % of control and the T/C under setting [14] was 89 % of control.
On to `O=S1(=O)C[CH-]C1.[C-]#[O+].[C-]#[O+].[C-]#[O+].[W].[c-]1[c-][c-][cH-][c-]1`, for which the T/C was 98 % of control (dose: 0.78 mg/kg/injection, schedule: Q01DX009 (ip), vehicle: saline with Tween-80); 93 % of control (dose: 1.56 mg/kg/injection, schedule: Q01DX009 (ip), vehicle: saline with Tween-80); 94 % of control (dose: 3.13 mg/kg/injection, schedule: Q01DX009 (ip), vehicle: saline with Tween-80); 93 % of control (dose: 6.25 mg/kg/injection, schedule: Q01DX009 (ip), vehicle: saline with Tween-80).
With `N#C/C(=C\c1ccc2c(c1)OCO2)C(=O)N/N=C/c1ccc2c(c1)OCO2`, the T/C under setting [11] is 101 % of control, the T/C under setting [12] is 98 % of control and the T/C under setting [13] is 94 % of control.
As for `CCC[P+](CCC)(CCC)CCCCCCCCCC[P+](CCC)(CCC)CCC`, the T/C reads like this: (dose: 0.19 mg/kg/injection, schedule: Q01DX009 (ip), vehicle: saline) 106 % of control; (dose: 0.39 mg/kg/injection, schedule: Q01DX009 (ip), vehicle: saline) 100 % of control; (dose: 0.79 mg/kg/injection, schedule: Q01DX009 (ip), vehicle: saline) 88 % of control.
`COc1ccc2ccc3oc([N+](=O)[O-])cc3c2c1`: the T/C is, setting by setting: under setting [1], 108 % of control; under setting [2], 119 % of control; (dose: 400.0 mg/kg/injection, schedule: Q01DX005 (ip), vehicle: Klucel (hydroxypropylcellulose) (HPC)) 92 % of control.
`CCN1CCC(=C(c2ccccc2)c2ccccc2)C1`: the T/C by setting is: (dose: 6.25 mg/kg/injection, schedule: Q01DX009 (ip), vehicle: Klucel (hydroxypropylcellulose) (HPC)) 102 % of control; (dose: 12.5 mg/kg/injection, schedule: Q01DX009 (ip), vehicle: Klucel (hydroxypropylcellulose) (HPC)) 102 % of control; under setting [8], 100 % of control; under setting [3], 110 % of control; under setting [9], 108 % of control.
In the case of `CC(C)c1nccn1Cc1ccccc1`, the T/C (dose: 15.0 mg/kg/injection, schedule: Q01DX005 (ip), vehicle: saline) is 101 % of control; the T/C (dose: 30.0 mg/kg/injection, schedule: Q01DX005 (ip), vehicle: saline) is 99 % of control; the T/C (dose: 60.0 mg/kg/injection, schedule: Q01DX005 (ip), vehicle: saline) is 101 % of control and 90 % of control.
Regarding `O=C(CS(=O)(=O)c1ccccc1)c1ccccc1`, the T/C is, setting by setting: under setting [9], 101 % of control; under setting [10], 101 % of control; (dose: 400.0 mg/kg/injection, schedule: Q01DX009 (ip), vehicle: Klucel (hydroxypropylcellulose) (HPC)) 105 % of control.
Consider `Cn1c(C(O)CCl)nc2c3ccccc3ccc21` (configuration not stated), for which the T/C (dose: 25.0 mg/kg/injection, schedule: Q01DX009 (ip), vehicle: saline) is 109 % of control; the T/C under setting [11] was 106 % of control; the T/C under setting [12] is 109 % of control and 92 % of control.
In the case of `NC(CO)C(=O)NC(CCC(=O)O)C(=O)NC(CO)C(=O)NC(CCC(=O)O)C(=O)NC(Cc1ccc(N(CCCl)CCCl)cc1)C(=O)O` (configuration not stated) (H-SESE[ξPhe(4-N(CH2CH2Cl)2)]-OH; configuration not given here), the T/C was 96 % of control (dose: 5.0 mg/kg/injection, schedule: Q04DX003 (ip), vehicle: water); 98 % of control (dose: 10.0 mg/kg/injection, schedule: Q04DX003 (ip), vehicle: water); 101 % of control (dose: 20.0 mg/kg/injection, schedule: Q04DX003 (ip), vehicle: water); 102 % of control and 111 % of control (dose: 40.0 mg/kg/injection, schedule: Q04DX003 (ip), vehicle: water); 117 % of control (dose: 80.0 mg/kg/injection, schedule: Q04DX003 (ip), vehicle: water).
In the case of `CC1CCC2(OC1)OC1CC3C4CCC5CC(O)CCC5(C)C4CCC3(C)C1C2C` (configuration not stated), the T/C runs as follows: (dose: 10.0 mg/kg/injection, schedule: Q01DX009 (ip), vehicle: Klucel (hydroxypropylcellulose) (HPC)) 108 % of control; (dose: 20.0 mg/kg/injection, schedule: Q01DX009 (ip), vehicle: Klucel (hydroxypropylcellulose) (HPC)) 117 % of control; (dose: 40.0 mg/kg/injection, schedule: Q01DX009 (ip), vehicle: Klucel (hydroxypropylcellulose) (HPC)) 119 % of control.
Take `O=C(SCNS(=O)(=O)c1ccccc1)c1ccccc1`: the T/C is 111 % of control (dose: 100.0 mg/kg/injection, schedule: Q01DX001 (ip), vehicle: Klucel (hydroxypropylcellulose) (HPC)); 113 % of control (dose: 200.0 mg/kg/injection, schedule: Q01DX001 (ip), vehicle: Klucel (hydroxypropylcellulose) (HPC)); 114 % of control (dose: 400.0 mg/kg/injection, schedule: Q01DX001 (ip), vehicle: Klucel (hydroxypropylcellulose) (HPC)).
With `COC(=O)C[C@](O)(CCC(C)(C)O)C(=O)O[C@@H]1C(OC)=C[C@]23CCCN2CCc2cc4c(cc2[C@H]13)OCO4`, the T/C was 177 % of control (dose: 0.5 mg/kg/injection, schedule: Q01DX009 (ip), vehicle: saline) and 231 % of control (dose: 1.0 mg/kg/injection, schedule: Q01DX009 (ip), vehicle: saline).
`OCc1ccccc1Cn1ccnc1`: the T/C is 96 % of control under setting [4]; 93 % of control under setting [14]; 96 % of control (dose: 240.0 mg/kg/injection, schedule: Q01DX005 (ip), vehicle: saline with Tween-80).
On to `CC(C)CC(=O)C(c1ccccc1)C(CC(C)C)C(=O)C1C(c2ccccc2)CC(=O)C(C(C)C)C1c1ccccc1` (configuration not stated), for which the T/C by setting is: under setting [5], 101 % of control; under setting [6], 92 % of control; under setting [7], 87 % of control.
